Measured values: article PMC5218480 (PLoS ONE, 2017)

Tested on: MV-4-11 cells
Assay: Gene expression microarray analysis (Affymetrix PrimeView) and GSEA
Type: cell-based, human
Parameters: RFU PODN (11730768_x_at) / Fold change /veh PODN (11730768_x_at) / RFU LINC00158 (11744669_a_at) / Fold change /veh LINC00158 (11744669_a_at) / RFU DUSP10 (11751237_a_at) / Fold change /veh DUSP10 (11751237_a_at) / RFU ID3 (11757404_x_at) / Fold change /veh ID3 (11757404_x_at) / RFU PLEKHG5 (11737974_s_at) / Fold change /veh PLEKHG5 (11737974_s_at) / RFU LRRC4B (11730491_at) / Fold change /veh LRRC4B (11730491_at) / RFU GIMAP4 (11747438_a_at) / Fold change /veh GIMAP4 (11747438_a_at) / RFU KRT8 (11758183_x_at) / Fold change /veh KRT8 (11758183_x_at) / RFU CNN1 (11734310_a_at) / Fold change /veh CNN1 (11734310_a_at) / RFU VPS37D (11726825_at) / Fold change /veh VPS37D (11726825_at) / RFU C10orf10 (11716522_x_at) / Fold change /veh C10orf10 (11716522_x_at) / RFU KIR2DL2 /// KIR2DL4 /// KIR2DL5A /// KIR2DL5B /// KIR2DS1 /// KIR2DS2 /// KIR2DS3 /// KIR2DS4 /// KIR3DL3 /// KIR3DL3 /// KIR3DS1 (11738374_at) / Fold change /veh KIR2DL2 /// KIR2DL4 /// KIR2DL5A /// KIR2DL5B /// KIR2DS1 /// KIR2DS2 /// KIR2DS3 /// KIR2DS4 /// KIR3DL3 /// KIR3DL3 /// KIR3DS1 (11738374_at) / RFU C1QL1 (11718748_at) / Fold change /veh C1QL1 (11718748_at) / RFU TMPRSS4 (11747572_a_at) / Fold change /veh TMPRSS4 (11747572_a_at) / RFU HAMP (11756126_x_at) / Fold change /veh HAMP (11756126_x_at) / RFU RNFT2 (11725882_a_at) / Fold change /veh RNFT2 (11725882_a_at) / RFU NR4A2 (11747474_a_at) / Fold change /veh NR4A2 (11747474_a_at) / RFU ABCC12 (11746883_a_at) / Fold change /veh ABCC12 (11746883_a_at) / RFU TMEM136 (11760407_x_at) / Fold change /veh TMEM136 (11760407_x_at) / RFU CLDN22 /// WWC2 (11732394_at) / Fold change /veh CLDN22 /// WWC2 (11732394_at) / RFU HLA-DPB1 (11760878_x_at) / Fold change /veh HLA-DPB1 (11760878_x_at) / RFU SPINT1 (11716480_a_at) / Fold change /veh SPINT1 (11716480_a_at) / RFU GAP43 (11754022_s_at) / Fold change /veh GAP43 (11754022_s_at) / RFU A4GNT (11735810_at) / Fold change /veh A4GNT (11735810_at) / RFU PRB3 (11715151_x_at) / Fold change /veh PRB3 (11715151_x_at) / RFU TUBB4B (11761932_at) / Fold change /veh TUBB4B (11761932_at) / RFU CAPN14 (11732068_a_at) / Fold change /veh CAPN14 (11732068_a_at) / RFU TMCC2 (11721928_a_at) / Fold change /veh TMCC2 (11721928_a_at) / RFU IRGQ (11745062_a_at) / Fold change /veh IRGQ (11745062_a_at) / RFU FAM174B (11720279_a_at) / Fold change /veh FAM174B (11720279_a_at) / RFU TMPRSS4 (11748680_a_at) / Fold change /veh TMPRSS4 (11748680_a_at) / RFU FAM212B (11763350_a_at) / Fold change /veh FAM212B (11763350_a_at) / RFU PLEKHG5 (11743358_a_at) / Fold change /veh PLEKHG5 (11743358_a_at) / RFU ZSCAN30 (11745921_a_at) / Fold change /veh ZSCAN30 (11745921_a_at) / RFU CMKLR1 (11741424_a_at) / Fold change /veh CMKLR1 (11741424_a_at) / RFU LOC101060620 /// MAPK8IP1 (11723275_at) / Fold change /veh LOC101060620 /// MAPK8IP1 (11723275_at) / RFU SPTSSB (11747773_x_at) / Fold change /veh SPTSSB (11747773_x_at) / RFU PRSS12 (11739890_at) / Fold change /veh PRSS12 (11739890_at) / RFU BIN1 (11741810_x_at) / Fold change /veh BIN1 (11741810_x_at) / RFU WNT11 (11732464_a_at) / Fold change /veh WNT11 (11732464_a_at) / RFU C10orf10 (11716521_a_at) / Fold change /veh C10orf10 (11716521_a_at) / RFU C5orf56 (11738089_at) / Fold change /veh C5orf56 (11738089_at) / RFU CYB561 (11721691_x_at) / Fold change /veh CYB561 (11721691_x_at) / RFU ANKRD19P (11752326_a_at) / Fold change /veh ANKRD19P (11752326_a_at) / RFU OR2T12 /// OR2T33 /// OR2T8 (11738714_s_at) / Fold change /veh OR2T12 /// OR2T33 /// OR2T8 (11738714_s_at) / RFU VCAN (11748164_a_at) / Fold change /veh VCAN (11748164_a_at) / RFU JSRP1 (11732532_at) / Fold change /veh JSRP1 (11732532_at) / RFU KRTAP10-11 (11738290_x_at) / Fold change /veh KRTAP10-11 (11738290_x_at) / RFU MYO3A (11730013_a_at) / Fold change /veh MYO3A (11730013_a_at) / RFU EBF3 (11725865_a_at) / Fold change /veh EBF3 (11725865_a_at) / RFU CAMK2N1 (11719241_x_at) / Fold change /veh CAMK2N1 (11719241_x_at) / RFU C5orf56 (11738088_a_at) / Fold change /veh C5orf56 (11738088_a_at) / RFU OLFML3 (11715873_a_at) / Fold change /veh OLFML3 (11715873_a_at) / RFU LOC100653217 /// NTM (11731650_a_at) / Fold change /veh LOC100653217 /// NTM (11731650_a_at) / RFU MAPK11 (11762145_a_at) / Fold change /veh MAPK11 (11762145_a_at) / RFU FIZ1 (11724087_x_at) / Fold change /veh FIZ1 (11724087_x_at) / RFU OASL (11726364_x_at) / Fold change /veh OASL (11726364_x_at) / RFU SOX15 (11748057_x_at) / Fold change /veh SOX15 (11748057_x_at) / RFU CD79A (11719716_a_at) / Fold change /veh CD79A (11719716_a_at) / RFU HIST1H1D (11736915_at) / Fold change /veh HIST1H1D (11736915_at) / RFU CASKIN2 (11723855_a_at) / Fold change /veh CASKIN2 (11723855_a_at) / RFU LOC730098 (11760151_x_at) / Fold change /veh LOC730098 (11760151_x_at) / RFU OR4N2 (11742367_at) / Fold change /veh OR4N2 (11742367_at) / RFU PRRT2 (11749266_a_at) / Fold change /veh PRRT2 (11749266_a_at) / RFU SNX32 (11753110_a_at) / Fold change /veh SNX32 (11753110_a_at) / RFU CDHR5 (11726645_a_at) / Fold change /veh CDHR5 (11726645_a_at) / RFU RCAN1 (11760418_a_at) / Fold change /veh RCAN1 (11760418_a_at) / RFU FAM167A (11723789_a_at) / Fold change /veh FAM167A (11723789_a_at) / RFU FAM26E (11764081_at) / Fold change /veh FAM26E (11764081_at) / RFU ISYNA1 (11749810_s_at) / Fold change /veh ISYNA1 (11749810_s_at) / RFU ACY1 (11761880_at) / Fold change /veh ACY1 (11761880_at) / RFU 11764098_at / Fold change /veh 11764098_at / RFU SAMD14 (11745864_x_at) / Fold change /veh SAMD14 (11745864_x_at) / RFU NPB (11741838_a_at) / Fold change /veh NPB (11741838_a_at) / RFU TMPRSS6 (11731388_a_at) / Fold change /veh TMPRSS6 (11731388_a_at) / RFU KRTAP10-2 (11738614_at) / Fold change /veh KRTAP10-2 (11738614_at) / RFU ARHGAP8 /// PRR5-ARHGAP8 (11727945_x_at) / Fold change /veh ARHGAP8 /// PRR5-ARHGAP8 (11727945_x_at) / RFU KRTAP5-7 /// NADSYN1 (11734609_at) / Fold change /veh KRTAP5-7 /// NADSYN1 (11734609_at) / RFU RASL12 (11751679_a_at) / Fold change /veh RASL12 (11751679_a_at) / RFU CDKN2B (11736163_a_at) / Fold change /veh CDKN2B (11736163_a_at) / RFU PRF1 (11729649_at) / Fold change /veh PRF1 (11729649_at) / RFU, ZNF638 /// ZNF638-IT1 / Fold change vs veh, ZNF638 /// ZNF638-IT1 / RFU, PANK3 / Fold change vs veh, PANK3 / RFU, SH3YL1 / Fold change vs veh, SH3YL1 / RFU, ZEB2 / Fold change vs veh, ZEB2 / RFU, NRIP1 / Fold change vs veh, NRIP1 / RFU, PTTG1IP / Fold change vs veh, PTTG1IP / RFU, CAPN2 / Fold change vs veh, CAPN2 / RFU, MED14 / Fold change vs veh, MED14 / RFU, SNORA58 / Fold change vs veh, SNORA58 / RFU, C1orf63 / Fold change vs veh, C1orf63 / RFU, LRRFIP1 / Fold change vs veh, LRRFIP1 / RFU, NDUFAF7 / Fold change vs veh, NDUFAF7 / RFU, SLC12A2 / Fold change vs veh, SLC12A2 / RFU, IBTK / Fold change vs veh, IBTK / RFU, ESF1 / Fold change vs veh, ESF1 / Fold change vs veh, TMEM50B / RFU, TAOK1 / Fold change vs veh, TAOK1 / RFU, ACBD3 / Fold change vs veh, ACBD3 / RFU, TMA16 / Fold change vs veh, TMA16 / RFU, RWDD3 / Fold change vs veh, RWDD3 / RFU, BCAT1 / Fold change vs veh, BCAT1 / RFU, EDEM3 / Fold change vs veh, EDEM3 / RFU, TMEM33 / Fold change vs veh, TMEM33 / RFU, WDR75 / Fold change vs veh, WDR75 / RFU, AHCTF1 / Fold change vs veh, AHCTF1 / RFU, TFRC / Fold change vs veh, TFRC / RFU, ZDHHC17 / Fold change vs veh, ZDHHC17 / RFU, NOM1 / Fold change vs veh, NOM1 / RFU, ARL8B / Fold change vs veh, ARL8B / RFU, ZBTB11 / Fold change vs veh, ZBTB11 / RFU, TAMM41 / Fold change vs veh, TAMM41 / RFU, KIAA1704 /// LOC100996395 / Fold change vs veh, KIAA1704 /// LOC100996395 / RFU, ING1 / Fold change vs veh, ING1 / RFU, TRMT61B / Fold change vs veh, TRMT61B / RFU, FUBP3 / Fold change vs veh, FUBP3 / RFU, TP53 / Fold change vs veh, TP53 / RFU, TNKS2 / Fold change vs veh, TNKS2 / RFU, ZFP14 / Fold change vs veh, ZFP14 / RFU, ACTR2 / Fold change vs veh, ACTR2 / RFU, PPP3R1 / Fold change vs veh, PPP3R1 / RFU, PIK3R1 / Fold change vs veh, PIK3R1 / RFU, HNRNPA1 / Fold change vs veh, HNRNPA1 / RFU, RNF170 / Fold change vs veh, RNF170 / RFU, ZNF28 / Fold change vs veh, ZNF28 / RFU, RNGTT / Fold change vs veh, RNGTT / RFU, OGT / Fold change vs veh, OGT / RFU, BRD1 / Fold change vs veh, BRD1 / RFU, MARS / Fold change vs veh, MARS / RFU, ZNF655 / Fold change vs veh, ZNF655 / RFU, FAHD1 / Fold change vs veh, FAHD1 / RFU, BDP1 / Fold change vs veh, BDP1 / RFU, LRRCC1 / Fold change vs veh, LRRCC1 / RFU, ARID1A / Fold change vs veh, ARID1A / RFU, ZNF146 / Fold change vs veh, ZNF146 / RFU, ZNF330 / Fold change vs veh, ZNF330 / RFU, GPN3 / Fold change vs veh, GPN3 / RFU, C9orf123 / Fold change vs veh, C9orf123 / RFU, N4BP2L2 / Fold change vs veh, N4BP2L2 / RFU, ARFIP1 / Fold change vs veh, ARFIP1 / RFU, FAM179B / Fold change vs veh, FAM179B / RFU, BCL10 / Fold change vs veh, BCL10 / RFU, UHRF1BP1L / Fold change vs veh, UHRF1BP1L / RFU, BET1 / Fold change vs veh, BET1 / RFU, CNOT2 / Fold change vs veh, CNOT2 / RFU, ZNF268 / Fold change vs veh, ZNF268 / Fold change vs veh, ZNF507 / RFU, DGCR2 / Fold change vs veh, DGCR2 / RFU, WDSUB1 / Fold change vs veh, WDSUB1 / Fold change vs veh, HSP90B1 /// MIR3652 / RFU, ADSS / Fold change vs veh, ADSS / RFU, GK / Fold change vs veh, GK / RFU, ZNF148 / Fold change vs veh, ZNF148 / RFU, TAF9 / Fold change vs veh, TAF9 / RFU, SLC1A5 / Fold change vs veh, SLC1A5 / RFU, SLMO2 / Fold change vs veh, SLMO2 / RFU, ABCC4 / Fold change vs veh, ABCC4 / RFU, LOC101060439 /// RAP1B / Fold change vs veh, LOC101060439 /// RAP1B / RFU, RFX7 / Fold change vs veh, RFX7 / RFU, GTPBP10 / Fold change vs veh, GTPBP10 / RFU, CNEP1R1 / Fold change vs veh, CNEP1R1 / RFU, BIVM-ERCC5 /// ERCC5 / Fold change vs veh, BIVM-ERCC5 /// ERCC5 / RFU, ILF3 / Fold change vs veh, ILF3 / RFU 11762660_at / Fold change /veh 11762660_at / RFU VCAN (11757783_s_at) / Fold change /veh VCAN (11757783_s_at) / RFU DDX43 (11728927_at) / Fold change /veh DDX43 (11728927_at) / RFU KRT8 (11758188_x_at) / Fold change /veh KRT8 (11758188_x_at) / RFU NKD1 (11759106_at) / Fold change /veh NKD1 (11759106_at) / RFU SRD5A1 (11742802_a_at) / Fold change /veh SRD5A1 (11742802_a_at) / RFU TPSAB1 /// TPSB2 (11721975_s_at) / Fold change /veh TPSAB1 /// TPSB2 (11721975_s_at) / RFU GSTM3 (11746129_a_at) / Fold change /veh GSTM3 (11746129_a_at) / RFU IL23R (11737362_x_at) / Fold change /veh IL23R (11737362_x_at) / RFU TMEM51 (11727254_a_at) / Fold change /veh TMEM51 (11727254_a_at) / RFU PIWIL2 (11732686_x_at) / Fold change /veh PIWIL2 (11732686_x_at) / RFU ORM1 (11744905_x_at) / Fold change /veh ORM1 (11744905_x_at) / RFU CCDC152 (11743942_at) / Fold change /veh CCDC152 (11743942_at) / RFU ECM1 (11717891_a_at) / Fold change /veh ECM1 (11717891_a_at) / RFU IL23R (11748794_a_at) / Fold change /veh IL23R (11748794_a_at) / RFU TNFAIP8L3 (11732012_x_at) / Fold change /veh TNFAIP8L3 (11732012_x_at) / RFU MBOAT4 (11741988_at) / Fold change /veh MBOAT4 (11741988_at) / RFU 11764193_at / Fold change /veh 11764193_at / RFU TMEM53 (11763286_at) / Fold change /veh TMEM53 (11763286_at) / RFU MAGEB2 (11727129_at) / Fold change /veh MAGEB2 (11727129_at) / RFU TMEM200A (11744735_a_at) / Fold change /veh TMEM200A (11744735_a_at) / RFU CCDC152 (11751479_a_at) / Fold change /veh CCDC152 (11751479_a_at) / RFU FAM211A (11726209_a_at) / Fold change /veh FAM211A (11726209_a_at) / RFU RGS16 (11746705_a_at) / Fold change /veh RGS16 (11746705_a_at) / RFU VCAN (11755009_s_at) / Fold change /veh VCAN (11755009_s_at) / RFU RHOB (11743442_s_at) / Fold change /veh RHOB (11743442_s_at) / RFU RGS16 (11720943_a_at) / Fold change /veh RGS16 (11720943_a_at) / RFU RGS16 (11720944_at) / Fold change /veh RGS16 (11720944_at) / RFU, VPS4B / Fold change vs veh, VPS4B / RFU, CREB1 / Fold change vs veh, CREB1 / RFU, DNAJC13 / Fold change vs veh, DNAJC13 / RFU, GNAQ / Fold change vs veh, GNAQ / RFU, CDK5R1 / Fold change vs veh, CDK5R1 / RFU, ZRANB3 / Fold change vs veh, ZRANB3 / RFU, CUL4A / Fold change vs veh, CUL4A / RFU, CCNY / Fold change vs veh, CCNY / RFU, UFL1 / Fold change vs veh, UFL1 / RFU, COG3 / Fold change vs veh, COG3 / RFU, DIAPH2 / Fold change vs veh, DIAPH2 / RFU, SKA2 / Fold change vs veh, SKA2 / RFU, AFF3 / Fold change vs veh, AFF3 / RFU, LMF1 / Fold change vs veh, LMF1 / RFU, IPO11 / Fold change vs veh, IPO11 / RFU, DFFB / Fold change vs veh, DFFB / RFU, FOXP1 / Fold change vs veh, FOXP1 / RFU, CARD8 / Fold change vs veh, CARD8 / RFU, STRN3 / Fold change vs veh, STRN3 / RFU, ADK / Fold change vs veh, ADK / RFU, RASSF2 / Fold change vs veh, RASSF2 / RFU, WIPF1 / Fold change vs veh, WIPF1 / RFU, LARP1B / Fold change vs veh, LARP1B / RFU, RASA1 / Fold change vs veh, RASA1 / RFU, RB1 / Fold change vs veh, RB1 / RFU, PPFIA1 / Fold change vs veh, PPFIA1 / RFU, MAT2A / Fold change vs veh, MAT2A / RFU, CCT5 / Fold change vs veh, CCT5 / RFU, WDR92 / Fold change vs veh, WDR92 / RFU, CUX1 / Fold change vs veh, CUX1 / RFU, TTC7A / Fold change vs veh, TTC7A / RFU, TMEM135 / Fold change vs veh, TMEM135 / RFU, DEPTOR / Fold change vs veh, DEPTOR / RFU, CPM / Fold change vs veh, CPM / RFU, DNAJB6 / Fold change vs veh, DNAJB6 / RFU, CACNA2D3 / Fold change vs veh, CACNA2D3 / RFU, DTX4 / Fold change vs veh, DTX4 / RFU, TFCP2 / Fold change vs veh, TFCP2 / RFU, GMCL1 /// GMCL1P1 / Fold change vs veh, GMCL1 /// GMCL1P1 / RFU, AEBP2 / Fold change vs veh, AEBP2 / RFU, SNHG1 /// SNORD22 /// SNORD25 /// SNORD26 /// SNORD27 /// SNORD28 /// SNORD29 /// SNORD31 / Fold change vs veh, SNHG1 /// SNORD22 /// SNORD25 /// SNORD26 /// SNORD27 /// SNORD28 /// SNORD29 /// SNORD31 / Fold change (Aza/veh), C12orf56 (ProbeSet 11735607_a_at) / Fold change (ACY-1035/veh), C12orf56 (ProbeSet 11735607_a_at) / Fold change (Aza/veh), FGFR1OP (ProbeSet 11751329_s_at) / Fold change (ACY-1035/veh), FGFR1OP (ProbeSet 11751329_s_at) / Fold change (Aza/veh), VPS36 (ProbeSet 11739960_a_at) / Fold change (ACY-1035/veh), VPS36 (ProbeSet 11739960_a_at) / RFU SYPL1 (11715823_x_at) / Fold change /veh SYPL1 (11715823_x_at) / RFU IGFBP7 (11715501_s_at) / Fold change /veh IGFBP7 (11715501_s_at) / RFU REEP3 (11722064_at) / Fold change /veh REEP3 (11722064_at) / RFU IGLL1 (11728026_x_at) / Fold change /veh IGLL1 (11728026_x_at): dose or concentration left out as unconfirmed
Conditions: ProbeSet 11719632_a_at; LIST B

**Q.** With Nc1ccc(-c2cccs2)cc1NC(=O)c1ccc2c(c1)cc(C1CC1)n2CCN1CCOCC1 [ACY-1035] as the compound, how does the “Fold change vs veh, ABCC4” value read?
**A.** Its value is 0.87.
